Measured values from US10472334B2, “Small molecules for inhibiting male fertility” (The University of North Carolina at Chapel Hill, priority 2014, dated 2019).
pIC50: −log10 of the molar value. Read-outs that look alike come from different tables or passages of the source.

Experiments:
[1] = system: human sperm motility; experiment: Computer-assisted sperm analysis (CASA) of human sperm motility; assay type: cell-based; conditions: for pIC50: Homo sapiens, Sperm
Experimental: In another embodiment, a computer-assisted sperm analysis (CASA) can be used as a live cell compound screen for determining the effect of compounds on human sperm motility. Additionally, to facilitate the IC50 evaluation of compounds using different ejaculates, reducing inter-assay variation due to differences in sperm quality in different semen samples, an index of relative motility inhibition (RMI) was developed.
This is calculated as: RMI=[% motility*VSL]; percentage of motile sperm (% motility) or the percentage of progressively motile sperm (% progressive motility, RPMI) multiplied by the straight-line velocity (VSL); the average velocity measured in a straight line from the beginning to the end of a track in μm/sec.
Normalized RMI can be calculated by dividing the RMI of each experimental condition by its respective DMSO control.
Computer-assisted sperm analysis (CASA) was used as a live cell compound screen for determining the effect of compounds on human sperm motility. Computer-assisted sperm analysis (CASA) was performed using the approach taught in Mitra et al., Biology of Reproduction, Vol. 82, p 491 (2010), to determine the parameters of the control versus compound-treated spermatozoa. The parameters measured are: average pathway velocity (VAP: the average velocity of the smoothed cell path in 1 m/sec), the straight-line velocity (VSL: the average velocity measured in a straight line from the beginning to the end of track in 1 m/sec), the curvilinear velocity (VCL: the average velocity measured over the actual point-to-point track of the cell in 1 m/sec), the lateral head amplitude (ALH: amplitude of lateral head displacement in 1 m), the beat cross-frequency (BCF: frequency of sperm head crossing the sperm average path in Hz), the straightness (STR: the average value of the ratio VSL/VAP in %), and the linearity (LIN: the average value of the ratio VSL/VCL in %). The sperm motility parameters are assessed in pre-warmed (37° C.) two- or four-chambered 20-mm Leja slides, loading 5 μL or 2 μL, respectively, of the samples in each chamber and immediately using CASA. This computerized measuring device included a phase-contrast microscope (Olympus CX41), a camera, a mini-therm stage warmer, an image digitizer, and a computer to store and analyze data. The software used for data analysis is the HTR Ceros 12.3 (Hamilton-Thorne Biosciences). A range of 13 to 20 fields are scanned from each chamber. Progressive cells had to have a minimum of 25 μm/sec VAP and 80% of STR.
To facilitate the IC50 evaluation of compounds using different ejaculates, reducing inter-assay variation due to differences in sperm quality in different semen samples, an index of relative motility inhibition (RMI) was developed. This is calculated as: RMI=[% motility*VSL]; percentage of motile sperm (% motility) or the percentage of progressively motile sperm (% progressive motility, RPMI) multiplied by the straight-line velocity (VSL); the average velocity measured in a straight line from the beginning to the end of a sperm track in μm/sec. Normalized RMI (RPMI) was calculated by dividing the RMI of each experimental condition by its respective DMSO control.
The analysis of sperm motility was carried out with computer-assisted sperm analysis (CASA) (Ceros version 12.3 software; Hamilton-Thorne), using the techniques taught in Mitra et al., Biology of Reproduction, Vol. 82, p 491 (2010).

[2] = Aqueous solubility (nephelometric method); assay type: physicochemical; conditions: at 100 μM
Experimental: Solutions of the test compound were prepared from DMSO stock solution at the specified test concentrations. The solutions were mixed thoroughly and aliquoted into a 384-well plate, incubated for 1 hour at 37° C., and the degree of light scattering in each solution was measured at 635 nm using a laser-based microplate nephelometer. The mean nephelometric reading at each concentration was calculated and compared to that of the blank solution and a positive control (a solution of latex at a minimum concentration sufficient to give a mean reading higher than that of blank solution, as determined by a calibration curve). The compound was judged to be soluble at a specific concentration if the mean reading was less than the reading of the positive control. In cases where the mean reading was greater than or equal to the positive control, the solution was reported as having a precipitate and a percent precipitation value was calculated using the following formula: % precipitation=(mean test compound−mean blank)/(mean positive control−mean blank)×100

[3] = In vitro toxicity, cell viability; assay type: cell-based
Experimental: The percent of control activity was calculated by comparing the fluorescence reading in the presence of test compound to that in the absence of a test (control) compound. Subsequently, the percent of inhibition was calculated by subtraction of the percent of control value from 100. IC50 values were determined by non-linear regression analysis of the concentration-response curves. These parameters are obtained by Hill equation curve fitting. See, for example, Nociari, M. M. et al. (1998), J. Immunol. Meth., 213: 157-167.

[4] = system: human spermatozoa; experiment: Internal sperm pH detection with BCECF; assay type: cell-based; conditions: FIG. 6, 10 and 20 μM
Experimental: A series of experiments was performed to determine the mechanism of action of the compounds described herein. The experiments were carried out as described in O'Rand and Widgren, “Loss of Calcium in Human Spermatozoa via EPPIN, the Semenogelin Receptor,” Biology of Reproduction, (2012) 86(2):55, 1-7.
The AM ester derivative of the pH-sensitive dye BCECF (5 μM; Molecular Probes) was used to detect changes in the pH in spermatozoa treated with SEMG1. Spermatozoa were loaded with BCECF-AM for 30 min in bovine serum albumin-free medium, centrifuged to remove extracellular dye, and resuspended in M16M. Changes to 1.13105-0.93105 spermatozoa/well in 50 μl of M16M at 378 C after treatment with 3.2 μM SEMG1 were monitored in a BioTek (Winookski, Vt.) Synergy2 Multiplatform automated plate reader (with heater and shaker); wells were excited using a 485/20 filter and emission read with a 528/20 filter. Fluorescence was read immediately and recorded every 10 sec; readings for each time point were normalized, averaged, and expressed as percentages of decrease in relative fluorescent units. Data from three ejaculate samples are reported.

pIC50 ([1]; FIG. 10, RMI using % progressive motility, read-out: IC50 in terms of progressive motility): ~5.37 | pIC50 ([1]; FIGS. 3 and 4, read-out: IC50, CASA, RMI (relative motility)): ~5.12 | pIC50 ([1]; relative motility index using % progressive motility, read-out: CASA IC50 RPMI): 5.12 | solubility [2]: Good
SMILES: CCOC(=O)CSc1nc(NNC(=O)OC)nc(Nc2ccc(NC(=O)OC)c(O)c2)n1 [TZ4_121, [4-(3-Hydroxy-4-methoxycarbonylamino-phenylamino)-6-(N′methoxycarbonyl-hydrazino)-1,3,5-triazin-2-ylsulfanyl]-acetic acid ethyl ester]
change in progressive motility ([1]; FIG. 7, 12.5 μM): significant decrease in progressive motility | time until infertility would likely result, time course of sperm motility ([1]; concentration of around 20 μM, FIG. 5): 3 to 5 min | sperm killed ([1]; within 3 minutes): > 70% | pIC50 ([3]; FIG. 2, read-out: cell viability IC50): ~4.77 | pIC50 ([3]; read-out: In vitro toxicology IC50): ~4.70 | change in internal sperm pH [4]: significant decrease in pH
